# Measured values as given in PubChem BioAssay (NCI).
#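 Interpolation was linear, between the two tested concentrations surrounding the appropriate level; five concentrations were tested over 48 hours in 96-well plates. The concentration for 50% growth inhibition is given as GI50. TGI marks complete inhibition of growth.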
# Experiments:
# Test in all cases: NCI-60 cell line screen, 48 h
# [1] = test system: 786-0 renal
# [2] = test system: A498 renal
# [3] = test system: A549 NSCLC
# [4] = test system: ACHN renal
# [5] = test system: BT-549 breast
# [6] = test system: CCRF-CEM leukemia
# [7] = test system: COLO 205 colon
# [8] = test system: DU-145 prostate
# [9] = test system: HCC-2998 colon
# [10] = test system: HCT-116 colon
# [11] = test system: HCT-15 colon
# [12] = test system: HL-60(TB) leukemia
# [13] = test system: HOP-62 NSCLC
# [14] = test system: HOP-92 NSCLC
# [15] = test system: HS 578T breast
# [16] = test system: HT29 colon
# [17] = test system: IGROV1 ovarian
# [18] = test system: K-562 leukemia
# [19] = test system: KM12 colon
# [20] = test system: LOX IMVI melanoma
# [21] = test system: M14 melanoma
# [22] = test system: MALME-3M melanoma
# [23] = test system: MCF7 breast
# [24] = test system: MDA-MB-231 breast
# [25] = test system: MDA-MB-435
# [26] = test system: MOLT-4 leukemia
# [27] = test system: NCI-H226 lung
# [28] = test system: NCI-H23 lung
# [29] = test system: NCI-H460 lung
# [30] = test system: NCI-H522 lung
# [31] = test system: NCI/ADR-RES ovarian
# [32] = test system: OVCAR-3 ovarian
# [33] = test system: OVCAR-4 ovarian
# [34] = test system: OVCAR-5 ovarian
# [35] = test system: OVCAR-8 ovarian
# [36] = test system: PC-3 prostate
# [37] = test system: RPMI-8226 leukemia
# [38] = test system: RXF 393 renal
# [39] = test system: SF-268 CNS
# [40] = test system: SF-295 CNS
# [41] = test system: SF-539 CNS
# [42] = test system: SK-MEL-2 melanoma
# [43] = test system: SK-MEL-28 melanoma
# [44] = test system: SK-MEL-5 melanoma
# [45] = test system: SK-OV-3 ovarian
# [46] = test system: SN12C renal
# [47] = test system: SNB-19 CNS
# [48] = test system: SR leukemia
# [49] = test system: SW-620 colon
# [50] = test system: T-47D breast
# [51] = test system: TK-10 renal
# [52] = test system: U251 CNS
# [53] = test system: UACC-257 melanoma
# [54] = test system: UACC-62 melanoma
# [55] = test system: UO-31 renal
# [56] = test system: CAKI-1 renal
# [57] = test system: EKVX NSCLC
# [58] = test system: SNB-75 CNS
smiles,measurement,setting,value
COc1cc(-c2cc(/C=C/C(=O)c3ccc(N)cc3)[nH]n2)cc(OC)c1OC,GI50,[1],2.04 µM
same,TGI,[1],6.49 µM
same,GI50,[2],1.64 µM
same,TGI,[2],4.33 µM
same,GI50,[3],2.08 µM
same,TGI,[3],7.02 µM
same,GI50,[4],1.61 µM
same,TGI,[4],3.67 µM
same,GI50,[5],1.38 µM
same,TGI,[5],2.82 µM
same,GI50,[6],0.556 µM
same,TGI,[6],4.17 µM
same,GI50,[7],1.74 µM
same,TGI,[7],3.34 µM
same,GI50,[8],1.65 µM
same,TGI,[8],4.05 µM
same,GI50,[9],2.01 µM
same,TGI,[9],3.63 µM
same,GI50,[10],1.1 µM
same,TGI,[10],2.61 µM
same,GI50,[11],1.37 µM
same,TGI,[11],6.76 µM
same,GI50,[12],1.74 µM
same,TGI,[12],10.8 µM
same,GI50,[13],1.77 µM
same,TGI,[13],3.92 µM
same,GI50,[14],3.68 µM
same,TGI,[14],27.6 µM
same,GI50,[15],4.33 µM
same,TGI,[15],> 100 µM
same,GI50,[16],1.85 µM
same,TGI,[16],4.82 µM
same,GI50,[17],3.2 µM
same,TGI,[17],10.5 µM
same,GI50,[18],0.726 µM
same,TGI,[18],23.6 µM
same,GI50,[19],1.14 µM
same,TGI,[19],2.88 µM
same,GI50,[20],1.6 µM
same,TGI,[20],3.28 µM
same,GI50,[21],1.83 µM
same,TGI,[21],3.86 µM
same,GI50,[22],2.05 µM
same,TGI,[22],4.71 µM
same,GI50,[23],1.5 µM
same,TGI,[23],5.42 µM
same,GI50,[24],2.06 µM
same,TGI,[24],12.2 µM
same,GI50,[25],1.66 µM
same,TGI,[25],3.21 µM
same,GI50,[26],1.91 µM
same,TGI,[26],8.51 µM
same,GI50,[27],1.71 µM
same,TGI,[27],3.51 µM
same,GI50,[28],2.48 µM
same,TGI,[28],6.79 µM
same,GI50,[29],1.8 µM
same,TGI,[29],5.1 µM
same,GI50,[30],1.62 µM
same,TGI,[30],3.99 µM
same,GI50,[31],3.8 µM
same,TGI,[31],65.8 µM
same,GI50,[32],1.57 µM
same,TGI,[32],3.37 µM
same,GI50,[33],1.4 µM
same,TGI,[33],5.44 µM
same,GI50,[34],1.78 µM
same,TGI,[34],3.75 µM
same,GI50,[35],2.39 µM
same,TGI,[35],9.76 µM
same,GI50,[36],2.21 µM
same,TGI,[36],10.4 µM
same,GI50,[37],0.479 µM
same,TGI,[37],2.77 µM
same,GI50,[38],1.35 µM
same,TGI,[38],3.24 µM
same,GI50,[39],1.69 µM
same,TGI,[39],3.93 µM
same,GI50,[40],2.55 µM
same,TGI,[40],10.9 µM
same,GI50,[41],1.3 µM
same,TGI,[41],2.66 µM
same,GI50,[42],2.85 µM
same,TGI,[42],7.53 µM
same,GI50,[43],1.86 µM
same,TGI,[43],4.08 µM
same,GI50,[44],1.65 µM
same,TGI,[44],3.06 µM
same,GI50,[45],2.99 µM
same,TGI,[45],8.32 µM
same,GI50,[46],1.86 µM
same,TGI,[46],4.52 µM
same,GI50,[47],2.34 µM
same,TGI,[47],9.98 µM
same,GI50,[48],0.326 µM
same,TGI,[48],2.75 µM
same,GI50,[49],2.05 µM
same,TGI,[49],6.37 µM
same,GI50,[50],1.42 µM
same,TGI,[50],4.3 µM
same,GI50,[51],4.84 µM
same,TGI,[51],17.5 µM
same,GI50,[52],1.42 µM
same,TGI,[52],2.77 µM
same,GI50,[53],1.87 µM
same,TGI,[53],4.02 µM
same,GI50,[54],1.7 µM
same,TGI,[54],3.58 µM
same,GI50,[55],1.36 µM
same,TGI,[55],2.86 µM
COc1ccc2c(-c3ccc(OCCN(C)C)cc3)c(Oc3ccccc3)c(=O)oc2c1,TGI,[1],8.68 µM
same,TGI,[2],26.8 µM
same,TGI,[3],10.4 µM
same,TGI,[4],22 µM
same,TGI,[5],24.4 µM
same,TGI,[56],25.1 µM
same,TGI,[6],10.1 µM
same,TGI,[7],9.59 µM
same,TGI,[8],27.6 µM
same,TGI,[57],23.5 µM
same,TGI,[9],10.3 µM
same,TGI,[10],8.79 µM
same,TGI,[11],14.6 µM
same,TGI,[13],27.3 µM
same,TGI,[14],25.8 µM
same,TGI,[15],21.5 µM
same,TGI,[16],22.4 µM
same,TGI,[17],19.1 µM
same,TGI,[18],12.4 µM
same,TGI,[19],> 39.4 µM
same,TGI,[20],26.6 µM
same,TGI,[21],3.08 µM
same,TGI,[22],11.6 µM
same,TGI,[23],15.3 µM
same,TGI,[24],10.2 µM
same,TGI,[25],7.12 µM
same,TGI,[26],11.8 µM
same,TGI,[27],40 µM
same,TGI,[28],28.8 µM
same,TGI,[29],22.2 µM
same,TGI,[30],11.3 µM
same,TGI,[31],20.4 µM
same,TGI,[32],21.2 µM
same,TGI,[33],40.7 µM
same,TGI,[34],28.2 µM
same,TGI,[35],26.2 µM
same,TGI,[36],18.9 µM
same,TGI,[37],15.5 µM
same,TGI,[38],20.5 µM
same,TGI,[39],18.9 µM
same,TGI,[40],8.91 µM
same,TGI,[41],16.7 µM
same,TGI,[42],13.9 µM
same,TGI,[43],5.53 µM
same,TGI,[44],5.89 µM
same,TGI,[45],18.1 µM
same,TGI,[46],18.7 µM
same,TGI,[47],17.2 µM
same,TGI,[58],21.6 µM
same,TGI,[48],5.17 µM
same,TGI,[49],16.7 µM
same,TGI,[50],> 59.9 µM
same,TGI,[51],23 µM
same,TGI,[52],8.9 µM
same,TGI,[53],4.52 µM
same,TGI,[54],9.82 µM
same,TGI,[55],13.9 µM
OCC#Cc1ccccc1C#CCCCCCCC#Cc1ccccc1C#CCO,GI50,[1],17.3 µM
same,TGI,[1],31.1 µM
same,GI50,[2],21.5 µM
same,TGI,[2],36.1 µM
same,GI50,[3],17.2 µM
same,TGI,[3],33.9 µM
same,GI50,[4],17.4 µM
same,TGI,[4],31.5 µM
same,GI50,[5],20.2 µM
same,TGI,[5],37.9 µM
same,GI50,[56],17.4 µM
same,TGI,[56],32.8 µM
same,GI50,[7],18.8 µM
same,TGI,[7],36.4 µM
same,GI50,[8],19.1 µM
same,TGI,[8],35.1 µM
same,GI50,[57],17.5 µM
same,TGI,[57],32.7 µM
same,GI50,[9],17.7 µM
same,TGI,[9],31.5 µM
same,GI50,[10],10.7 µM
same,TGI,[10],24.5 µM
same,GI50,[11],23.2 µM
same,TGI,[11],59.6 µM
same,GI50,[12],25.2 µM
same,TGI,[12],48.5 µM
same,GI50,[13],9.78 µM
same,TGI,[13],25.8 µM
same,GI50,[14],13.1 µM
same,TGI,[14],26.5 µM
same,GI50,[15],18.2 µM
same,TGI,[15],39.1 µM
same,GI50,[16],22.7 µM
same,TGI,[16],> 75.9 µM
same,GI50,[17],7.97 µM
same,TGI,[17],44.3 µM
same,GI50,[18],15.8 µM
same,TGI,[18],40.8 µM
same,GI50,[19],18.1 µM
same,TGI,[19],37.1 µM
same,GI50,[20],18 µM
same,TGI,[20],34.7 µM
same,GI50,[21],5.64 µM
same,TGI,[21],22.9 µM
same,GI50,[22],15.7 µM
same,TGI,[22],30.1 µM
same,GI50,[23],18.4 µM
same,TGI,[23],40.7 µM
same,GI50,[24],9.97 µM
same,TGI,[24],24.8 µM
same,GI50,[25],18.1 µM
same,TGI,[25],34.1 µM
same,GI50,[26],11.1 µM
same,TGI,[26],30.8 µM
same,GI50,[27],16.4 µM
same,TGI,[27],33.1 µM
same,GI50,[28],17.1 µM
same,TGI,[28],30.9 µM
same,GI50,[29],20.5 µM
same,TGI,[29],47.4 µM
same,GI50,[30],0.882 µM
same,GI50,[31],17.7 µM
same,TGI,[31],33 µM
same,GI50,[32],18.3 µM
same,TGI,[32],33.4 µM
same,GI50,[33],18.4 µM
same,TGI,[33],45.6 µM
same,GI50,[34],17 µM
same,TGI,[34],30.7 µM
same,GI50,[35],17 µM
same,TGI,[35],35.8 µM
same,GI50,[36],15.9 µM
same,TGI,[36],33.3 µM
same,GI50,[38],16.8 µM
same,TGI,[38],33.6 µM
same,GI50,[39],16.2 µM
same,TGI,[39],32.5 µM
same,GI50,[40],14.6 µM
same,TGI,[40],28.6 µM
same,GI50,[41],18.7 µM
same,TGI,[41],32.8 µM
same,GI50,[42],34.6 µM
same,TGI,[42],> 100 µM
same,GI50,[43],23.6 µM
same,TGI,[43],62.2 µM
same,GI50,[44],17 µM
same,TGI,[44],31.3 µM
same,GI50,[45],15.8 µM
same,TGI,[45],30.5 µM
same,GI50,[46],15.8 µM
same,TGI,[46],31.1 µM
same,GI50,[47],18.6 µM
same,TGI,[47],34.2 µM
same,GI50,[48],16 µM
same,TGI,[48],34.6 µM
same,GI50,[49],22.2 µM
same,TGI,[49],41.6 µM
same,GI50,[50],18.1 µM
same,TGI,[50],33.7 µM
same,GI50,[51],19.2 µM
same,TGI,[51],34.2 µM
same,GI50,[52],18.2 µM
same,TGI,[52],34.1 µM
same,GI50,[53],18.9 µM
same,TGI,[53],34.5 µM
same,GI50,[54],16.8 µM
same,TGI,[54],31.4 µM
same,GI50,[55],24 µM
same,TGI,[55],> 53.1 µM
